# Data published in publication PMC9436767, “Optical control of the β2-adrenergic receptor with opto-prop-2: A cis-active azobenzene analog of propranolol” (iScience, 2022).
# How the values were obtained:
# β2-AR = β2-AR (Homo sapiens, UniProt P07550); test: Kinetic β-arrestin2 recruitment to β2-AR with 360 nm light flashes; assay type: cell-based; design: expressed in transfected cells; host or cells: HEK293T, transient (PEI); conditions: 1 μM with 32 nM isoprenaline; six 5-min cycles of 360 nm flashes
# Description: It was further explored whether the activity of the β2-AR could be modulated dynamically by treating cells with light (Figure 5). Cells that overexpress a split-nanoluc luciferase biosensor system for βarrestin2 recruitment to the β2-AR were treated with isoprenaline in the presence of Opto-prop-2. A time-dependent activation of the receptor is observed for 10 min after which cells were pulsed with light flashes of 360 nm.
# Cells incubated with Opto-prop-2 are depicted in green and magenta before and after illumination, respectively. Data points represent the mean ± SEM of the three experiments, normalized to the luminescence at 10 min as 100%.
# HEK293T cells were transiently transfected with 2 μg plasmid DNA per million using linear PEI at a DNA:PEI weight-ratio of 1:6. ([Zarca et al., 2021]) The used DNA plasmids were β2-AR-SmBit (0.4 μg), β-arrestin2-LgBit (0.6 μg) and pcDEF3 (non-coding DNA; 1 μg). The DNA/PEI transfection mix in 150 mM NaCL was vortexed and incubated for 15 min before adding it to a cell suspension with a final concentration of 300,000 cell/mL. Cells were then immediately plated 30,000 cells/well on a white 96-well plate (Greiner). […] After 10 min the protocol setting were switched to treat cells repeadetly with 360 nm light flashes (40 times 200 flashes over 5 min) followed after each 5 min cycle with detection of luminescence, up to a total detection time of 40 min.
# [1] = Cis-to-trans thermal relaxation, Arrhenius extrapolation; assay type: physicochemical; conditions: PSScis sample 25 μM in HBSS buffer with 1% DMSO; Arrhenius extrapolation to 20 °C
# Description: Solubility in buffer was explored for all compounds using nephelometry ([Bevan and Lloyd, 2000]) and these studies indicate good solubility of all azobenzene photoswiches up to at least 100 μM (Figure S1). […] For all compounds, 360 nm induces a large change in absorbance spectrum compared with the non-illuminated (dark) compounds (Table 1, Figure 2A, and S1), indicating photoisomerization to the cis-isomer. The absorbance peak (λmax) of Opto-prop-1-3 ranged between 319 and 347 nm for the trans-isomers and between 423 and 429 for the cis-isomers (Table 1), as is typical for azobenzene compounds ([Hauwert et al., 2018]). […] The photochemical conversions were determined by continuous illumination of the Opto-prop compounds with near UV-light (360 ± 20 nm) as 10-mM solutions in DMSO. Based on LCMS analysis, it was observed that all compounds obtained a high level of conversion to the cis-isomer with a photostationary state (PSS) of >88 area % cis-isomer (i.e. PSScis; Table 1). Subsequent back-switching to PSStrans with 434 nm maintained 22–29 area % cis-isomer (Table 1). The thermal relaxation of the PSScis state of the photoswitchable ligands was monitored over time by measuring absorbance at 254 nm. Only minor thermal relaxation to the trans-isomer could be detected at 20°C (not shown). An estimate of the relaxation rate at 20 °C was determined using a method by Priimagi et al. ([Ahmed et al., 2017]), which was performed in Hanks’ balanced salt solution (HBSS) using increased temperatures to enhance the speed of thermal relaxation. The Opto-prop ligands are all very stable as cis-isomer after illumination, with thermal relaxation half-lives of >10 days at 20 °C (See Table 1 and Figure S1).
# Cis-to-trans thermal relaxations were performed in the dark at 25 μM of the PSS360 state of the Opto-prop-1, -2 or -3 in HBSS buffer with 1% DMSO at various temperatures (60°C, 70°C and 80°C). Absorbance was repeatedly measured at 320, 320 and 347 nm for Opto-prop-1, -2 or -3, respectively, with 60 s intervals.
# Sequence of β2-AR (P07550 whole entry): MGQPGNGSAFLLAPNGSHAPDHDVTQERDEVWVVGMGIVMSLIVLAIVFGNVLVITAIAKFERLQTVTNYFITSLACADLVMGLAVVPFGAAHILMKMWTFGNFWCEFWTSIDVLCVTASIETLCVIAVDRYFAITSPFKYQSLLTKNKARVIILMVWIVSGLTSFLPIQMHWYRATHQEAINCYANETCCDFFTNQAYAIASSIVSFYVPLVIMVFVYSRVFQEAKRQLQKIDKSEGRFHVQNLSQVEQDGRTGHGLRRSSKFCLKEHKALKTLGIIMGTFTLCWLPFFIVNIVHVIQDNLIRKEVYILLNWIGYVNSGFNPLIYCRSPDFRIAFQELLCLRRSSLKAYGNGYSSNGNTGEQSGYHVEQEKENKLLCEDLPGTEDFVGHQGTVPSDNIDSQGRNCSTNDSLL
compound,measurement,setting,value
CC(C)NCC(O)COc1cccc(N=Nc2ccccc2)c1 (centres unmarked) [Opto-prop-2],β2-AR activity (β-arrestin2 recruitment) after 360 nm light flashes,β2-AR,a drop in β2-AR activity is observed
same,t1/2 20°C (thermal relaxation of cis-isomer),[1],>240 h
